Laboratory results reported in the NIST ThermoML archive (doi:10.1016/j.fluid.2014.04.015).
± gives the expanded uncertainty stated by the source.

Conditions: Liquid, Closed cell (Static) method

Structure (SMILES): CC(F)F [1,1-difluoroethane]
- vapor or sublimation pressure (283.15 K): 374.8 ± 7 kPa
- vapor or sublimation pressure (293.15 K): 515.2 ± 7 kPa
- vapor or sublimation pressure (303.15 K): 692 ± 7.1 kPa
- vapor or sublimation pressure (313.15 K): 911.1 ± 7.1 kPa
- vapor or sublimation pressure (323.15 K): 1179.4 ± 7.2 kPa

Structure (SMILES): C=C(F)C(F)(F)F [2,3,3,3-tetrafluoro-1-propene]
- vapor or sublimation pressure (283.15 K): 436.5 ± 7.1 kPa
- vapor or sublimation pressure (293.15 K): 591 ± 7.2 kPa
- vapor or sublimation pressure (303.15 K): 780.5 ± 7.4 kPa
- vapor or sublimation pressure (313.15 K): 1015.6 ± 7.6 kPa
- vapor or sublimation pressure (323.15 K): 1300.7 ± 7.9 kPa
